Data reported in ChEMBL document CHEMBL1201862, “PubChem BioAssay data set” (2004).
Active and inactive are the calls of the source.

Key:
[1] = molecular target: Mitogen-activated protein kinase 10 (Homo sapiens, UniProt P53779); assay: Dose response biochemical screening assay for inhibitors of c-Jun N-Terminal Kinase 3 (JNK3). [Related pubchem assays: 746 ]
[2] = molecular target: Peroxisome proliferator-activated receptor gamma/Nuclear receptor corepressor 2 (Homo sapiens, UniProt P37231+Q9Y618); assay: Counterscreen for NR2E3 inverse agonists: TR-FRET-based biochemical high throughput dose response assay to identify inverse agonists of the interaction between peroxisome proliferator-activated receptor gamma (PPARg) and nuclear receptor co-repressor 2 (NCOR2).; assay type: functional
[3] = molecular target: Photoreceptor-specific nuclear receptor (Homo sapiens, UniProt Q9Y5X4); assay: NR2E3 inverse agonists, dose response, biochemical, TR-FRET (AID 463256); assay type: functional
Chain of Photoreceptor-specific nuclear receptor (Q9Y5X4 whole entry): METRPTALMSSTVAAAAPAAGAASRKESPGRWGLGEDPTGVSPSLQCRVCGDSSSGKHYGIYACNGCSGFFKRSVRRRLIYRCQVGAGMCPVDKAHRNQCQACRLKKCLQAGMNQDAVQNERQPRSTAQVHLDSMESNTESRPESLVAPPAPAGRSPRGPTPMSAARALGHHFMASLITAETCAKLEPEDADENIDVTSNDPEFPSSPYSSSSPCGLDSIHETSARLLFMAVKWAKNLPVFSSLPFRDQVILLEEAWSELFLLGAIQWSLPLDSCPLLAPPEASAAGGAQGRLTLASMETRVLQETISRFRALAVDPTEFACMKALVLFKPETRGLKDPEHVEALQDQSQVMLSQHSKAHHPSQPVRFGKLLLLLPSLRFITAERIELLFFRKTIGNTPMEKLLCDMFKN

[4] = molecular target: ADP-ribosylation factor GTPase-activating protein 1 (Rattus norvegicus, UniProt Q62848); assay: Fluorescence polarization-based biochemical high throughput dose response screening assay to identify inhibitors of ADP-ribosylation factor GTPase activating protein 1 (ARFGAP1).; assay type: functional
Chain of ADP-ribosylation factor GTPase-activating protein 1 (Q62848 whole entry): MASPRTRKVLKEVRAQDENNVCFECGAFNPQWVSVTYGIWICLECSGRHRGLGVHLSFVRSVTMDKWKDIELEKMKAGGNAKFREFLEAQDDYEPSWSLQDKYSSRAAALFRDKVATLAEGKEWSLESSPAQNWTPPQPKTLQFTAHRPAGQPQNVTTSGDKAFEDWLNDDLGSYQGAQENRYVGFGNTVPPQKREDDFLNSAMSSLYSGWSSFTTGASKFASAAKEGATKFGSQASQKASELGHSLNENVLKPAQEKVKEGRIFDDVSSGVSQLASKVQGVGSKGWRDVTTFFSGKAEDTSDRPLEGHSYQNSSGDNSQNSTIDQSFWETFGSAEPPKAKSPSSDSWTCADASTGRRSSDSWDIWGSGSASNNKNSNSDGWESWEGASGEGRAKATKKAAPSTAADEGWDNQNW

[5] = M. tuberculosis H37Rv growth inhibitors, H37Rv strain (AID 1626); assay type: functional
[6] = molecular target: Genome polyprotein (Hepatitis C virus, UniProt Q2Q167); assay: HCV core protein dimerization inhibitors, dose response, biochemical, TR-FRET (AID 2159); parameters: species or system Hepacivirus hominis;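 further: blocks dimerization of HCV core protein measured by TR-FRET between tagged core106 pairs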
Chain of Genome polyprotein (Q2Q167 whole entry): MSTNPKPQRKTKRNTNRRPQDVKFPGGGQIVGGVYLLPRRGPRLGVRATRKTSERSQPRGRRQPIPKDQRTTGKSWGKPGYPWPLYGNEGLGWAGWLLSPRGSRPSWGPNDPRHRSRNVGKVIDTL

[7] = molecular target: T1, Mannose-6-phosphate isomerase (Homo sapiens, UniProt P34949); assay: inhibitors of human PMI, primary screen, biochemical, fluorescence intensity, coupled assay (AID 1209)
T1 sequence (P34949 whole entry): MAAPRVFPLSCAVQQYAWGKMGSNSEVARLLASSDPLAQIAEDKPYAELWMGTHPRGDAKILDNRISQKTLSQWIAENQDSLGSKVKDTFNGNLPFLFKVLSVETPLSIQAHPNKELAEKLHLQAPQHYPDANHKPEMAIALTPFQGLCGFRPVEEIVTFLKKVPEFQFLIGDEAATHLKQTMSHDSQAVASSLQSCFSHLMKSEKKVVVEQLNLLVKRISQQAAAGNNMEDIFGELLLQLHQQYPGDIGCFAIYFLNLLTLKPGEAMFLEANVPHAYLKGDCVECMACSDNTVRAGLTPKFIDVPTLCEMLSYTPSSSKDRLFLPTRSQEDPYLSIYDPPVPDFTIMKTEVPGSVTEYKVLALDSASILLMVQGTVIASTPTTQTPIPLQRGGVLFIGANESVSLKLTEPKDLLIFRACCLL

[8] = molecular target: Protein-tyrosine kinase 2-beta (Homo sapiens, UniProt Q14289);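 further: potency of inhibitors of PYK2 kinase phosphorylation of poly-GT substrate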
[9] = molecular target: Ephrin type-A receptor 4 (Mus musculus, UniProt Q03137); assay: inhibitors of EphA4 binding to KYL peptide, primary screen, biochemical, colorimetric, mouse EphA4 (AID 689); assay type: functional
Chain of Ephrin type-A receptor 4 (Q03137 whole entry): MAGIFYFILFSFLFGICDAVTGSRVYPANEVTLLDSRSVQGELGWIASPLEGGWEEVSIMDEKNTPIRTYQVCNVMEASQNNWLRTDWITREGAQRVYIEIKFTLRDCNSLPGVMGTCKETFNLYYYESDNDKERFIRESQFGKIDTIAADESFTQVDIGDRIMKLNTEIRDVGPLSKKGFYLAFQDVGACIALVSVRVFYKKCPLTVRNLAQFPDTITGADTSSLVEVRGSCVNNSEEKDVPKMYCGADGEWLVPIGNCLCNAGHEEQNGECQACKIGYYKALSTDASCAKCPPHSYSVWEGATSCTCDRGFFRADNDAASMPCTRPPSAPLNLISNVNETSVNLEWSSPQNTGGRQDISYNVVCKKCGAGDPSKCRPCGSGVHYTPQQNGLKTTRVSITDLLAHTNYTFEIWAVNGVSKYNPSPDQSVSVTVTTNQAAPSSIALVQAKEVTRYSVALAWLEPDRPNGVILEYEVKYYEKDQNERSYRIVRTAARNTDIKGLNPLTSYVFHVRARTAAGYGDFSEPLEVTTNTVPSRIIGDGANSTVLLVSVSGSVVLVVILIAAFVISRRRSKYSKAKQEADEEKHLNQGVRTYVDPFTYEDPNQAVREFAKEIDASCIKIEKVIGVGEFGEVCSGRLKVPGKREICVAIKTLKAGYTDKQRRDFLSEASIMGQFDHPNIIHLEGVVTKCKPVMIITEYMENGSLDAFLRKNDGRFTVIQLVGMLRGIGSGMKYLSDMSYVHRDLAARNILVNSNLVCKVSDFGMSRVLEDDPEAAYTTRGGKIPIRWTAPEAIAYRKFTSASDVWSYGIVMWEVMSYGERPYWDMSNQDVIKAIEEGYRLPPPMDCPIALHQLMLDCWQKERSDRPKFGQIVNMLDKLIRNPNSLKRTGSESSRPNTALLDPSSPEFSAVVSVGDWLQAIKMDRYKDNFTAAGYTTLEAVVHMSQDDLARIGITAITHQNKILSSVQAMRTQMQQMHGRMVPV

[10] = A549 cell cytotoxicity, dose response, cytotoxicity control, plate reader, cherry-pick, antagonist series (AID 743412); assay type: functional, cell-based
[11] = P. falciparum 3D7-ScDHODH growth inhibitors, dose response, SYBR Green, dry powder samples (AID 1159570); assay type: functional, cell-based;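 further: parasite growth measured after 72 hours of compound exposure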
[12] = HepG2 cell cytotoxicity, dose response, cytotoxicity control, plate reader, dry powder samples (AID 1159569); assay type: functional, cell-based;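 further: inhibitor potency with signal falling toward the positive control level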
[13] = P. falciparum Dd2 growth inhibitors, dose response, SYBR Green, cherry-picked samples (AID 1159567); assay type: functional, cell-based
[14] = P. falciparum Dd2 growth inhibitors, dose response, SYBR Green, dry powder samples (AID 1159566); assay type: functional, cell-based;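 further: potency for growth inhibition with lower SYBR green DNA signal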
[15] = Plasmodium falciparum Dd2 Sybr green parasite growth Measured in Cell-Based and Microorganism Combination System Using Plate Reader - 2153-01_Inhibitor_Dose_DryPowder_Activity_Set3.; assay type: functional
[16] = P. falciparum ATP4 D1247Y mutant growth inhibitors, dose response, NITD609-resistant line, SYBR Green, dry powder (AID 1159571); assay type: functional, cell-based;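 further: parasites synchronized at ring stage by sorbitol before testing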
[17] = molecular target: D(3) dopamine receptor (Homo sapiens, UniProt P35462); assay: Counterscreening of D4 Antagonists against Dopamine 3 DRD3 (Human), Confirmatory Assay.; assay type: functional
Chain of D(3) dopamine receptor (P35462 whole entry): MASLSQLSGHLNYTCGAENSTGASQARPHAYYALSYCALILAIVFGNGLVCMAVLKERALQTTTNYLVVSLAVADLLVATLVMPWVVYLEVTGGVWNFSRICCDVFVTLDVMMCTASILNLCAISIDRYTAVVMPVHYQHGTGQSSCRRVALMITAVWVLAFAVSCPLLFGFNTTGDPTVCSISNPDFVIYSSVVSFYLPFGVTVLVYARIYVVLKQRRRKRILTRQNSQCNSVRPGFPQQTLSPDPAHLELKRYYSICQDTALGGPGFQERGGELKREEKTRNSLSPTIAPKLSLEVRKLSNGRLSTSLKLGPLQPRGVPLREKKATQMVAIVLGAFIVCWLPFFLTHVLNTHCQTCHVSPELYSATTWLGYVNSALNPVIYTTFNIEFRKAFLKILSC

[18] = molecular target: D(1A) dopamine receptor (Homo sapiens, UniProt P21728); assay: Counterscreening of D4 Antagonists against Dopamine 1 (Human), Confirmatory Assay.; assay type: functional
Chain of D(1A) dopamine receptor (P21728 whole entry): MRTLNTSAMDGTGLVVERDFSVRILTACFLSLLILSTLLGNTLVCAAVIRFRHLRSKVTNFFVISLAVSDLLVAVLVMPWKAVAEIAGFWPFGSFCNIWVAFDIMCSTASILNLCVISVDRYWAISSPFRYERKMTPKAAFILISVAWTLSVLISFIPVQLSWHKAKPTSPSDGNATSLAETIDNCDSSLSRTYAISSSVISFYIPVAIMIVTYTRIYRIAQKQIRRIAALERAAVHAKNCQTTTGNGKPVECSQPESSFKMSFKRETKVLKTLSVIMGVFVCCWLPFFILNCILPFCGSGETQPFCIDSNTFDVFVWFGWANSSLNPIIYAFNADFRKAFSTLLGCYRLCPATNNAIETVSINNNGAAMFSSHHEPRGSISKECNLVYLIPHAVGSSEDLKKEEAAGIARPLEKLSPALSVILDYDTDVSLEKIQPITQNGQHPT

[19] = molecular target: D(1B) dopamine receptor (Homo sapiens, UniProt P21918); assay: Counterscreening of D4 Antagonists against Dopamine 5 DRD5 (Human), Confirmatory Assay.; assay type: functional
Chain of D(1B) dopamine receptor (P21918 whole entry): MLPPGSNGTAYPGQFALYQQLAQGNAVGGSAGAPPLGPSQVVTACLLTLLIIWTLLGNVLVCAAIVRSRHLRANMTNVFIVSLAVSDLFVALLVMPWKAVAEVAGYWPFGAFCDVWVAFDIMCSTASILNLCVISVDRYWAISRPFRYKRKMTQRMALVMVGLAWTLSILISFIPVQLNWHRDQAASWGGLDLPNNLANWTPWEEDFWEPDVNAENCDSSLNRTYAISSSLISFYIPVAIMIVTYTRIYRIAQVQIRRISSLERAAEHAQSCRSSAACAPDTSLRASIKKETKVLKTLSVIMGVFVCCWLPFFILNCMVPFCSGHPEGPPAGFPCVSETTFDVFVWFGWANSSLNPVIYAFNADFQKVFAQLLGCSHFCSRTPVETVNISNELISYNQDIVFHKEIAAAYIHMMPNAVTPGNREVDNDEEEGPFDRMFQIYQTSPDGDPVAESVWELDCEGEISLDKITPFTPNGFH

[20] = molecular target: D(2) dopamine receptor (Homo sapiens, UniProt P14416); assay: Counterscreening of D4 Antagonists against Dopamine 2S (Human), Confirmatory Assay.; assay type: functional
Chain of D(2) dopamine receptor (P14416 whole entry): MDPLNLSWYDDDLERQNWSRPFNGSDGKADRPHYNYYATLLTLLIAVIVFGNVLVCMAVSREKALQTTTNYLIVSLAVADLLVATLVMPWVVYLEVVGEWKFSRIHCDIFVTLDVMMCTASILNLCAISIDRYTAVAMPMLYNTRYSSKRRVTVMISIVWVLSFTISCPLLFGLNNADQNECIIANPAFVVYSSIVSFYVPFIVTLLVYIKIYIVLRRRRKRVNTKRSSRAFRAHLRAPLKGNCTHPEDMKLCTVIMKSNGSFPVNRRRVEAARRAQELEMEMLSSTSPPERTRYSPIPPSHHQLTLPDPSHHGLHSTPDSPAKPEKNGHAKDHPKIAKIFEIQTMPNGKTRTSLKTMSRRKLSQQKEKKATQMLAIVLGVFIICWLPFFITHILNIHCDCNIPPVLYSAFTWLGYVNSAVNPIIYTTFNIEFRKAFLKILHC

[21] = molecular target: Metabotropic glutamate receptor 7 (Homo sapiens, UniProt Q14831); assay: mGlu7 positive allosteric modulators, dose response, cell-based, calcium mobilization, Galpha15 (AID 743384); assay type: functional
[22] = molecular target: Large T antigen (Simian virus 40, UniProt P03070); assay type: functional, Betapolyomavirus macacae;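 further: Confirmatory-stage PubChem screen for compounds that inhibit SV40 T antigen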
Chain of Large T antigen (P03070 whole entry): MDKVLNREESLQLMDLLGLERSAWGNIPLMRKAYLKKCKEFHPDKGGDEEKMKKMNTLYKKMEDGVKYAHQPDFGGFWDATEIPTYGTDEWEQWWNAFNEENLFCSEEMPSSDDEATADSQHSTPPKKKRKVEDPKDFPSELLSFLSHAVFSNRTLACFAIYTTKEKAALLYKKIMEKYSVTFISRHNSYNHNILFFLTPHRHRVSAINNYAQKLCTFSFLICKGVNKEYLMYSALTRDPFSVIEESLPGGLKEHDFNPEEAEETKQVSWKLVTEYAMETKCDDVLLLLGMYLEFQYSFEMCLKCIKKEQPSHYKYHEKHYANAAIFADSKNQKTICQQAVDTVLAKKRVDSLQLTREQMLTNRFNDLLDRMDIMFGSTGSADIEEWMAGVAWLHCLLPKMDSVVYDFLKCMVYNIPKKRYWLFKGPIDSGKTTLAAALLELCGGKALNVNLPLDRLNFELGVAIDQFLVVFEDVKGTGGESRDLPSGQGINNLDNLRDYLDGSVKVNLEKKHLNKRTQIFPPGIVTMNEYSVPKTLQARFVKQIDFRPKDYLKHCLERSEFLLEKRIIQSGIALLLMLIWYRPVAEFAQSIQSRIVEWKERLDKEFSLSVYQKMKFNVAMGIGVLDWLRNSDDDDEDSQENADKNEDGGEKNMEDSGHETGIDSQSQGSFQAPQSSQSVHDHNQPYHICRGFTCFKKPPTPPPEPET

[23] = Dose-response inhibition of insulin secretion in a rat insulinoma line at 5 mM glucose (AID 1117331); assay type: functional, cell-based; conditions: INS-1E
[24] = half-maximal inhibitory concentration for glucagon-like peptide-1 release, STC-1 cell line, dose-response (AID 1117345); assay type: functional, cell-based
[25] = Glucagon-like peptide 1 release potency, NCI-H716 cell line, dose-response, half-maximal inhibitory concentration (AID 1117344); assay type: functional, cell-based

Chain of Mitogen-activated protein kinase 10 (P53779 whole entry): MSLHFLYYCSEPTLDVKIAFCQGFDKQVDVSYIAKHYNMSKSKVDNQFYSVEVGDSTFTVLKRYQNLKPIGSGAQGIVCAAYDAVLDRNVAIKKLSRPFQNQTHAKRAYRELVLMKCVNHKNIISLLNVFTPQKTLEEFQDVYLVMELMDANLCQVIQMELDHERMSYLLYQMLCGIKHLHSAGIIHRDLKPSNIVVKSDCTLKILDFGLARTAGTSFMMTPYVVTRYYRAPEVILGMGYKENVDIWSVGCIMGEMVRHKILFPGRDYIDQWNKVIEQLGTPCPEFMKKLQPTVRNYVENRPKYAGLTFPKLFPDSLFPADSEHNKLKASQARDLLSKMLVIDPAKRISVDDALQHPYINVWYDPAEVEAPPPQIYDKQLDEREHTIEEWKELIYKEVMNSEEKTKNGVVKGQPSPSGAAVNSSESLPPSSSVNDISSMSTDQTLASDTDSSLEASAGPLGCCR

N#Cc1c(N)nc2c(c1-c1ccco1)CCCCC2
IC50 [1]: > 93.1 µM (not active)

Cc1c(C(=O)Nc2ccc(-n3cnnn3)cc2)oc2ccccc12
IC50 [2]: 7.48 µM (active)
IC50 [3]: 8.46 µM (active)
IC50 [4]: 78.5 µM (inactive)

O=C(Oc1ccc2ccc(O)cc2c1)C1CCCCC1
IC50 [5]: > 100 µM (active)

CCOc1ccc(S(=O)(=O)N(CC(=O)N/N=C/c2ccc(-c3ccc([N+](=O)[O-])cc3)o2)c2ccccc2)cc1
IC50 [6]: > 49.8 µM (not active)
IC50 [7]: 36.4 µM (active)
IC50 [8]: 15.8 µM (not active)
IC50 [9]: 45.6 µM (active)

CCCNC(=O)N1[C@H](C#N)[C@H](c2ccc(C#Cc3ccc(F)cc3)cc2)[C@H]1CO
AC50 [10]: 24.7 µM (active)
AC50 [11]: 7.89 µM (active)
AC50 [12]: 22.3 µM (active)
AC50 [13]: < 0.3 µM (active)
AC50 [14]: 0.016 µM (active)
AC50 [15]: 0.00982 µM (active)
AC50 [16]: 0.0156 µM (active)

Clc1ccc(CN2CCO[C@H](CCc3ccccc3)C2)cc1
IC50 [17]: 20 µM (inactive)
IC50 [18]: 20 µM (inactive)
IC50 [19]: 20 µM (inactive)
IC50 [20]: 20 µM (inactive)

CC(=O)Nc1ccc(SCC(=O)c2cc(C)n(CCc3cccs3)c2C)cc1
EC50 [21]: 2 µM (active)

Oc1ccc(O)cc1 [HYDROQUINONE]
IC50 [22]: 7.76 µM (active)
IC50 [23]: > 33.3 µM (inactive)
IC50 [24]: 1.01 µM (active)
IC50 [25]: > 40 µM (inactive)
